# Measured values reported in patent US8969303B2, “Tocotrienol esters” (First Tech International Limited, priority 2010, dated 2015).
# How the values were obtained:
# [1] = system: MDA-MB-231 cells; assay: Wound healing anti-migratory assay; assay type: cell-based; conditions: Homo sapiens, single dose of 5 μM, 24 hours, read-out: inhibition of the migrated MDA-MB231 cells
# Method: The highly metastatic human breast cancer MDA-MB-231 cells were cultured in RPMI 1640 medium containing 10 mM HEPES, 4 mM L-glutamine, 10% fetal bovine serum, penicillin (100 IU mL-1), and streptomycin (50 μg mL-1), and grown in a 5% CO2 atmosphere at 37° C. Cells were plated onto sterile 24-well culture plates and allowed to recover for a confluent cell monolayer formed in each well (>95% confluence). Wounds were then inflicted to each cell monolayer using a sterile 200 μL pipette tip. Media were removed, cells monolayers were washed twice with PBS, and then fresh media containing test compounds were added to each well. Test compounds were prepared in DMSO at 5 μM concentration and added to the plates using DMSO as negative control. Tests were preformed in triplicate. The incubation was carried out for 24 hours under serum-starved conditions, after which the media was removed and the cells were fixed and stained using a Romanowski stain sold under the Diff Quick name (Dade Behring Diagnostics, Aguada, Puerto Rico). The number of cells which migrated on the scratched wound were counted under the microscope in three or more randomly selected fields (magnification: 400×). Final results are expressed as mean+/−SEM per 400× field.
# [2] = system: +SA mammary epithelial cells; assay: Antiproliferative MTT assay on +SA mammary epithelial cells; assay type: cell-based, mouse; conditions: for IC50: malignant mice +SA mammary cells, 24 hour treatment, MTT; for antiproliferative activity: +SA mammary cells, in words
# From the text: +SA mammary epithelial cell lines were serially passaged at subconfluent cell density. The +SA cell line was derived from an adenocarcinoma that developed spontaneously in a BALB/c female mouse. That cell line is discussed in more detail in Anderson, L. W., Danielson, K. G., Hosick, H. L. Eur. J. Cancer Clin. Oncol. 1981, 17, 1001-1008, Danielson, K G., Anderson, L. W., Hosick, H. L. Cancer Res. 1980, 40, 1812-1819.31, and Anderson, L. W., Danielson, K. G., Hosick, H. L. In Vitro. 1979, 15, 841-843. Cell culture conditions were similar to those described in detail in Shah, S. J., Gapor, A., Sylvester, P. W. Nutr. Cancer. 2003, 45, 236-246, Shah, S. J., Sylvester, P. W. Biochem. Cell. Biol. 2005, 83, 86-95, Wali, V. B., Sylvester, P. W. Lipids, 2007, 42, 1113-1123, and Wali, V. B., Bachawal, S. V., Sylvester, P. W. Exp. Biol. Med. (Maywood) 2009, 234, 639-650. Briefly, +SA cells were maintained in serum-free defined medium consisting of Dulbecco's modified Eagle's medium (DMEM)/F12 containing 5 mg/ml bovine serum albumin (BSA), […], 100 U/ml soybean trypsin inhibitor, 100 U/ml penicillin, 0.1 mg/ml streptomycin, […], and 10 ng/ml epidermal growth factor. For subculturing, cells were rinsed twice with sterile Ca^2+ and Mg^2+-free phosphate buffered saline (PBS) and incubated in 0.05% trypsin containing 0.025% EDTA in PBS for 5 minutes at 37° C. The released cells were centrifuged, resuspended in serum-free defined media and counted using a hemocytometer. A stock solution of the Compounds was prepared in DMSO. Once dissolved, this solution was added to a small volume of sterile 10% BSA in water and incubated overnight at 37° C. This solution conjugated to BSA was used to prepare various concentrations (0-40 μM) of tocotrienol analogs. DMSO was added to all treatment media such that the final DMSO concentration was the same in all treatment groups within a given experiment and was always less than 0.1%. For cytotoxicity studies, cells were seeded at a density of 5×10^4 cells/well (6 wells/group) in 24-well culture plates and allowed to grow in serum-free control defined media. After a 3 day incubation period (approximately 70% confluency), cells were divided equally into various treatment groups and exposed to their respective treatments for a 24 hour incubation period. Following the 24 hour treatment period, cell viability was measured using the MTT assay. All materials were purchased from Sigma Chemical Company (St. Louis, Mo.) unless otherwise stated.
# +SA mammary epithelial cell viable number was determined by the 3-(4,5-dimethylthiazol-2-yl)-2,5-diphenyl tetrazolium bromide (MTT) colorimetric assay. On the day of assay, treatment medium was replaced with fresh growth medium containing 0.42 mg/ml MTT, and the cells in 24-well plates were incubated at 37° C. for 4 hours. Afterward, the medium was removed, and the MTT crystals were dissolved in isopropyl alcohol (1 ml/well). The optical density of each sample was read at 570 nm on a microplate reader (SpectraCount, Packard BioScience Company), against a blank prepared from cell-free cultures. The number of cells/well was calculated against a standard curve prepared by plating various concentrations of cells, as determined by hemocytometer, at the start of each experiment.
# Differences among the various treatment groups in +SA cell cytotoxic studies were determined by analysis of variance (ANOVA) followed by Dunnett's t-test. The difference of P<0.05 was considered to be statistically significant as compared with vehicle-treated controls. Linear regression analysis of treatment effects on viable cell number in growth and cytotoxicity studies was used to determine the 50% growth inhibition concentration (IC50) for individual treatments.
# [3] = Stability in phosphate buffer; assay type: physicochemical; conditions: phosphate buffer pH 7.4, 37° C.
# Method: The stability of each of α-tocotrienol and Compound 6 was studied at 37° C. in phosphate buffer (pH 7.4). In amber vials, 500 μg/mL of each compound were dissolved in the buffer and the solution was incubated at 37° C. At interval times (0, 0.5, 1, 2, 4, 6, and 24 h), 50 μL it samples were collected and equal volumes of methanol were added to each sample followed by HPLC analysis.
# A Shimadzu HPLC system (Columbia, Md.) was used for quantification of α-tocotrienol and Compound 6. This system is composed of SIL 20-AHT autosampler, SPD-20A UV/VIS detector, and LC-20AB pump connected to a Dgu-20A3 degasser. Data acquisition was achieved by LC Solution software version 1.22 SP1 Shimadzu. The following chromatographic conditions were used: […] (250×4.6 mm id; Phenomenex, Torrance, Calif.), flow rate was adjusted to 1.0 mL/min, and λ was set at 295 nm. For α-tocotrienol solubility and stability studies, an isocratic elution with MeOH-EtOH—CH3CN (40:30:30, v/v/v) as mobile phase for 10 min. α-tocotrienol was eluted at 6.7 min. For the simultaneous separation of α-tocotrienol and Compound 6 the following gradient elution was also used starting with H2O— MeOH—N(Et)3 (10:90:0.05, v/v/v) for 5 min, followed by isocratic MeOH—N(Et)3 (100:0.05, v/v) for another 10 min. The retention times were 4 and 14.1 for Compound 6 and α-tocotrienol, respectively. Standard curves for α-tocotrienol and Compound 6 in MeOH were prepared in the range of 0.4-50 μg/mL and 1-1000 μg/mL, respectively. Each compound was quantified using its calibration curve for compounds peak area versus its concentration.
# [4] = Mus musculus, Epithelial cell, 24 h
SMILES,"IC50 [2, 4] [nM]",other results
"CC(C)=CCC/C(C)=C/CC/C(C)=C/CC[C@]1(C)CCc2c(C)c(OC(=O)c3ccc(C(=O)O)cc3C(=O)O)c(C)c(C)c2O1 [Compound 1, 4-(((R)-2,5,7,8-tetramethyl-2-((3E,7E)-4,8,12-trimethyltrideca-3,7,11-trienyl)chroman-6-yloxy)carbonyl)isophthalic acid]",1500,inhibition at 5 µM [1]: ~50%
"CC(C)=CCC/C(C)=C/CC/C(C)=C/CC[C@]1(C)CCc2cc(OC(=O)c3ccc(C(=O)O)cc3C(=O)O)c(C)c(C)c2O1 [Compound 2, 4-(((R)-2,7,8-trimethyl-2-((3E,7E)-4,8,12-trimethyltrideca-3,7,11-trienyl)chroman-6-yloxy)carbonyl)isophthalic acid]",620,
"CC(C)=CCC/C(C)=C/CC/C(C)=C/CC[C@]1(C)CCc2c(C)c(OC(=O)c3cc(C(=O)O)ccc3C(=O)O)c(C)c(C)c2O1 [Compound 3, 2-(((R)-2,5,7,8-tetramethyl-2-((3E,7E)-4,8,12-trimethyltrideca-3,7,11-trienyl)chroman-6-yloxy)carbonyl)terephthalic acid]",1460,inhibition at 5 µM [1]: ~50%
"CC(C)=CCC/C(C)=C/CC/C(C)=C/CC[C@]1(C)CCc2cc(OC(=O)c3cc(C(=O)O)ccc3C(=O)O)c(C)c(C)c2O1 [Compound 4, 2-(((R)-2,7,8-trimethyl-2-((3E,7E)-4,8,12-trimethyltrideca-3,7,11-trienyl)chroman-6-yloxy)carbonyl)terephthalic acid]",1440,
"CC(C)=CCC/C(C)=C/CC/C(C)=C/CC[C@]1(C)CCc2cc(OC(=O)c3cc(C(=O)O)ccc3C(=O)O)cc(C)c2O1 [Compound 5, 2-(((R)-2,8-dimethyl-2-((3E,7E)-4,8,12-trimethyltrideca-3,7,11-trienyl)chroman-6-yloxy)-carbonyl)terephthalic acid]",1500,
"CC(C)=CCC/C(C)=C/CC/C(C)=C/CC[C@]1(C)CCc2cc(OC(=O)/C=C\C(=O)O)c(C)c(C)c2O1 [Compound 7, (Z)-4-oxo-4-((R)-2,7,8-trimethyl-2-((3E,7E)-4,8,12-trimethyltrideca-3,7,11-trienyl)-chroman-6-yloxy)but-2-enoic acid]",2300,
"CC(C)=CCC/C(C)=C/CC/C(C)=C/CC[C@]1(C)CCc2cc(OC(=O)/C=C\C(=O)O)cc(C)c2O1 [Compound 8, (Z)-4-((R)-2,8-dimethyl-2-((3E,7E)-4,8,12-trimethyltrideca-3,7,11-trienyl)chroman-6-yloxy)-4-oxobut-2-enoic acid]",860,IC50 [2]: 870 nM
"CC(C)=CCC/C(C)=C/CC/C(C)=C/CC[C@]1(C)CCc2cc(OC(=O)CC(C)CC(=O)O)c(C)c(C)c2O1 (stereo partly drawn) [Compound 9, 3-Methyl-5-oxo-5-((R)-2,7,8-trimethyl-2-((3E,7E)-4,8,12-trimethyltrideca-3,7,11-trienyl)chroman-6-yloxy)pentanoic acid]",19200,antiproliferative activity [2]: inactive
"CC(C)=CCC/C(C)=C/CC/C(C)=C/CC[C@]1(C)CCc2cc(OC(=O)c3ccccc3)c(C)c(C)c2O1 [Compound 10, (R)-2,7,8-trimethyl-2-((3E,7E)-4,8,12-trimethyltrideca-3,7,11-trienyl)chroman-6-yl benzoate]",6550,inhibition at 5 µM [1]: ~50%; antiproliferative activity [2]: inactive
"CC(=O)Oc1cc(C(=O)Oc2cc3c(c(C)c2C)O[C@](C)(CC/C=C(\C)CC/C=C(\C)CCC=C(C)C)CC3)cc(OC(C)=O)c1OC(C)=O [Compound 11, 5-(((R)-2,7,8-trimethyl-2-((3E,7E)-4,8,12-trimethyltrideca-3,7,11-trienyl)chroman-6-yloxy)carbonyl)benzene-1,2,3-triyl triacetate]",1720,
"CC(=O)Oc1ccc(/C=C/C(=O)Oc2cc3c(c(C)c2C)O[C@](C)(CC/C=C(\C)CC/C=C(\C)CCC=C(C)C)CC3)cc1OC(C)=O [Compound 12, 4-((E)-3-oxo-3-((R)-2,7,8-trimethyl-2-((3E,7E)-4,8,12-trimethyltrideca-3,7,11-trienyl)chroman-6-yloxy)prop-1-enyl)-1,2-phenylene diacetate]",> 40000,antiproliferative activity [2]: inactive
CC(C)=CCC/C(C)=C/CC/C(C)=C/CC[C@]1(C)CCc2c(C)c(O)c(C)c(C)c2O1 [α-tocotrienol],,stability in phosphate buffer (in words) [3]: highly unstable; start of decomposition after dissolution [3]: 1 h; chemical stability relative to the zero time concentration ([3]; over 24 h): completely undetectable
